Values of other authors, collected in patent US20210299023A1, “COMPOSITIONS AND METHODS FOR HAIR GROWTH” (Allergan, Inc., priority 2010, published 2021).

How the values were obtained:
[1] = system: eyelash; settings: healthy patients
[2] = system: bald scalp of macaques; settings: 0.05% latanoprost

For `CCNC(=O)CCC/C=C\C[C@@H]1[C@@H](/C=C/[C@@H](O)CCc2ccccc2)[C@H](O)C[C@@H]1O` [Bimatoprost, bimatoprost], the eyelash growth [1] is given as “increased length, thickness, and darkness”.

For `CC(C)OC(=O)CCC/C=C\C[C@@H]1[C@@H](CC[C@@H](O)CCc2ccccc2)[C@H](O)C[C@@H]1O` [latanoprost], the hair growth [2] is listed as “significant hair growth” and the “density and thickness of hair” value ([2]; after 3 months of treatment) is listed as “increased significantly”.
